The values that follow come from patent US20090275667A1, “USE OF ALLICIN AS PRESERVATIVE, AS DISINFECTANT, AS ANTIMICROBIAL OR AS BIOCIDAL AGENT” (Stone Island Holdings Ltd, priority 2003, published 2009).

In general, MIC refers to the lowest concentration that inhibits growth of the organism.

For assay [1], the system named is protozoal parasite associated with Leishmaniasis. As to the kind of experiment: Confirmatory in vitro test against the Leishmaniasis parasite. The assay is classed as cell-based, Leishmania. The settings on record: allicin 5.0 gm per litre. From the text: Confirmatory in vitro tests at the University of East London using allicin at a concentration of 5.0 gm per litre has killed the protozoal parasite associated with Leishmaniasis. Taken with extrapolation of the results from the laboratory studies described in PCT/GB2002/004309, we believe that allicin at a concentration of 5000 ppm has efficacy as an antiprotozoal agent.

For assay [2], the system named is Brevibacillus laterosporus. Put plainly: Inhibition of bacterial growth in broth by Allicin (Study 2). The following applies: 34° C. The class given is cell-based. Also noted: key: +: Growth present; +^a: weak growth seen, occurred later than lower concentrations. The method, then: (§1) Allicin liquid (nominal concentration=1000 ppm. ai) was obtained from Allicin International Ltd and kept refrigerated.
(§2) The bacteria tested were Paenibacillus larvae subsp. larvae, Melissococcus plutonium, Brevibacillus laterosporus and Paenibacillus alvei. All isolates were freshly isolated from diseased material sent to the NBU diagnostic laboratory.
(§3) P. larvae subsp. larvae, B. laterosporus and P. alvei were grown on brain heart infusion plus thiamine (BHIT) agar and broth (SOP NBU/014) under aerobic conditions and M. plutonius was grown on SYPG agar and broth (SOP NBU/015) under anaerobic conditions. All experiments were carried out at 34° C. The concentrations of Allicin liquid investigated were 500, 250, 100, 50, 25 and 10 ppm. Broth was made up at twice the usual concentration, so that when the Allicin-containing component was added, the medium was at the correct strength for bacterial growth. Allicin solution was diluted in sterile deionised water to give the desired concentration when added to autoclaved broth. […] Further controls were included, which were the media plus an appropriate volume of Allicin, but not inoculated with bacteria. This would indicate if there were any bacteria present in the test item that may influence the results seen. Both aerobic and anaerobic controls were included.
(§4) Bacteria were isolated from diseased samples and subcultured on agar plates until pure, when they were inoculated into broth cultures. Cultures of M. plutonius were isolated anaerobically, then plated out and incubated both aerobically and anaerobically, to confirm that the isolate investigated was this bacterium. A similar microbe, Enterococcus faecalis, can sometimes be isolated from EFB-infected samples and is morphologically difficult to distinguish from M. plutonius. However, the former bacterium grows very well aerobically, whereas M. plutonius is unable to replicate. Thus, if an isolate is able to grow aerobically, it is not M. plutonius. This control mechanism was used throughout the experimental procedures to ensure that the correct organism was tested.
(§5) Each bacterium was freshly grown in a test tube containing 5 ml broth. A loopful (5 μl) of this bacterial suspension was removed from the culture and inoculated into each test tube according to SOP NBU/131. The same inoculum source for each strain was used for all Allicin dilutions, and all experiments were done in triplicate.
(§6) Where growth occurred in the presence of Allicin, one replicate from each concentration for each bacterium was plated out on the appropriate agar to identify the bacteria that had grown in the broth, to confirm the results (SOP NBU/131). Once growth was evident on this confirmation plate, the culture was assessed with respect to the colony morphology and Gram stained (according to SOP NBU/111) as a further confirmatory test. This is a suitable method as each bacterium tested has distinctive morphology both macro- and microscopically.

The subject of another assay is Melissococcus plutonius. Described as above. The class given is cell-based. Also on record: key: +: Growth present; +^a: weak growth seen, occurred later than lower concentrations. The following applies: 34° C. The procedure:
as §1, §2, §3, §4, §5, §6

For assay [3], the system named is Paenibacillus larvae subsp. larvae. Described as above. The assay is classed as cell-based. Also noted: key: +: Growth present; +^a: weak growth seen, occurred later than lower concentrations. The following applies: 34° C. The procedure: as §1, §2, §3, §4, §5, §6
Another assay relates to Paenibacillus alvei. The description is as above. The assay is classed as cell-based. Also noted: key: +: Growth present; +^a: weak growth seen, occurred later than lower concentrations. The following applies: 34° C. The procedure:
as §1, §2, §3, §4, §5, §6

The subject of the next assay is Ascosphaera apis. As to the kind of experiment: MIC by broth microdilution, bee pathogens. The settings on record: range 1000 ppm to 0.25 ppm. The assay is classed as cell-based. From the text:
We tested allicia (Allisure™ Liquid) activity against several species of entomopathogenic bacteria (Paenibacillus larvae subsp. larvae, Paenibacillus larvae subsp. pulvifaciens) and fungi (Ascosphaera apis and Ascosphaera aggregata) using broth microdilution method to determine minimum inhibitory concentration (MIC) and the agar diffusion test (Kirby-Bauer) to determine zone of inhibition. Bacterial spores were isolated from the diseased honey bee larval samples. […]
Fungal spores (Ascosphaera apis) were collected from black honey bee mummies and (Ascosphaera aggregata) spores were collected from the diseased leaf cutter bees. […] The fungal colonies were analyzed by microscopic preparations of aerial mycelia and fungal spore cysts. […]
Positive controls contained the antibiotic Tylosin (Tylan® 50, Elanco Animal Health Inc., IN) and negative controls contained no antibiotics. […] The optical densities of cultures (OD 600) were recorded 24 h and 48 h post inoculation, depending on the growth rate of the microbial species. […] Minimum bactericidal concentration values (NBC) were determined for allicin by plating out 100 μl of bacterial cultures derived from the MIC assay. […]

The structures appear in SMILES notation. In brackets after ≈: the same amount, converted by molar mass.

Take `C=CCS[S+]([O-])CC=C` (stereo not shown) [allicin, Allicin]: the “killing of the protozoal parasite” value in assay [1] was “killed”. The “Growth present at test item concentration” value (“Growth present” below) is on record as “+” in assay [2] (10 ppm); “+” in assay [2] (25 ppm); “+” in assay [2] (50 ppm); “+^a” in assay [2] (100 ppm); “+” in the assay with Melissococcus plutonius (10 ppm); “+” in the assay with Melissococcus plutonius (25 ppm). The “Growth present” value in the assay on Melissococcus plutonius (50 ppm) was “+”; in the assay on Melissococcus plutonius (100 ppm), “+^a”; in assay [3] (10 ppm) it was “+”; in assay [3] (25 ppm), “+^a”; in the assay on Paenibacillus alvei (10 ppm), “+”; in the assay on Paenibacillus alvei (25 ppm) it was “+”. In addition, the “Growth present” value with Paenibacillus alvei (50 ppm) is “+”; in the assay with Paenibacillus alvei (100 ppm), “+^a”. This compound gave a minimal inhibitory concentration (MIC) in the assay on Ascosphaera apis of 250 µg/mL (≈ 1540 µM).
